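Where inhibition never reached the appropriate level, the endpoint shown equals the highest concentration tested. Otherwise, values were interpolated linearly from a five-concentration, 48-hour dose response in 96-well plates. Here, GI50 denotes the concentration required for 50% inhibition of growth. TGI is the concentration that stops growth completely.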 A value given as a limit tells only on which side of the number the result lay.

Among the test systems are MOLT-4 leukemia; SNB-19 CNS; 786-0 renal; CCRF-CEM leukemia; HL-60(TB) leukemia; SF-268 CNS; UO-31 renal; HOP-92 NSCLC; OVCAR-3 ovarian.
Common to all, as to assay: growth of human tumour cells (NCI), 48 h

Regarding `CC(=O)OC1(C#N)CC2OC1C1C2N1C(=O)c1ccccc1` (centres undefined), the TGI with MOLT-4 leukemia, in the assay on SNB-19 CNS, with 786-0 renal, with CCRF-CEM leukemia, with HL-60(TB) leukemia and with SF-268 CNS was above 100 µM throughout. The TGI with UO-31 renal and in the assay with HOP-92 NSCLC was above 100 µM each time.

For `Cc1cc2c3ccccc3n(C)c2c2c1C(=O)c1ccccc1C2=O`, the TGI in the assay on OVCAR-3 ovarian came to 54.1 µM; in the assay on MOLT-4 leukemia, 27.4 µM; in the assay with SNB-19 CNS, 80.3 µM; with 786-0 renal, 34.3 µM; in the assay on CCRF-CEM leukemia, 25.5 µM; in the assay with HL-60(TB) leukemia it was 27.7 µM. Moreover, the TGI with SF-268 CNS was above 100 µM; in the assay on UO-31 renal, 27.4 µM; with HOP-92 NSCLC, 35 µM.

Regarding `COC(=O)C(C(=O)C(=O)Nc1cccc(O)c1)c1nc2ccc(Cl)cc2[nH]c1=O` (centres undefined), the TGI in the assay with OVCAR-3 ovarian, in the assay with MOLT-4 leukemia, in the assay with SNB-19 CNS, in the assay on 786-0 renal, with CCRF-CEM leukemia and in the assay on HL-60(TB) leukemia was above 100 µM throughout. Besides, the TGI with SF-268 CNS, in the assay on UO-31 renal and in the assay with HOP-92 NSCLC was above 100 µM in each case.

Turning to `O=C(Nc1cccc(Cl)c1)Nc1cccc(Cl)c1`, the GI50 in the assay on OVCAR-3 ovarian was 2.92 µM; in the assay with MOLT-4 leukemia, 23.8 µM; in the assay with SNB-19 CNS, above 42.9 µM; in the assay with 786-0 renal it was 36.7 µM; in the assay with HL-60(TB) leukemia, 5.02 µM; with SF-268 CNS, above 81.6 µM. The GI50 is above 26 µM in the assay on UO-31 renal and 2.11 µM with HOP-92 NSCLC. Also, the TGI in the assay with OVCAR-3 ovarian, with MOLT-4 leukemia, in the assay on SNB-19 CNS, in the assay with 786-0 renal, in the assay with HL-60(TB) leukemia and in the assay with SF-268 CNS was above 100 µM throughout. Besides, the TGI in the assay on UO-31 renal and in the assay with HOP-92 NSCLC was above 100 µM each time.

`Cc1ccc2nc3c(Cl)cc(=O)cc-3sc2c1`: the TGI in the assay on OVCAR-3 ovarian is 10.6 µM; with MOLT-4 leukemia, 41.5 µM; in the assay on 786-0 renal it was 35.7 µM; in the assay on CCRF-CEM leukemia, 19.8 µM; in the assay on HL-60(TB) leukemia it was 20.5 µM; with SF-268 CNS it was 68.1 µM. The TGI in the assay with UO-31 renal is above 100 µM; in the assay on HOP-92 NSCLC, 36.7 µM.

As for `CC1=C(C(=O)Nc2cccc(C(F)(F)F)c2)C(c2ccc(O)cc2)C(C(=O)Nc2cccc(C(F)(F)F)c2)=C(C)N1`, the TGI in the assay on OVCAR-3 ovarian is 31.8 µM; in the assay on MOLT-4 leukemia it was 47 µM; in the assay with SNB-19 CNS, above 100 µM; in the assay with 786-0 renal it was 35.8 µM; in the assay with CCRF-CEM leukemia it was 66.4 µM; in the assay on HL-60(TB) leukemia it was 38.7 µM. Also, the TGI was above 100 µM in the assay on SF-268 CNS, 53.5 µM in the assay on UO-31 renal and 39.3 µM with HOP-92 NSCLC.

In the case of `N=C(N)n1ncc(Cl)c(Cl)c1=O`, the TGI was 3.31 µM with OVCAR-3 ovarian; 4.64 µM in the assay with MOLT-4 leukemia; 12.9 µM with SNB-19 CNS; 7.02 µM in the assay on 786-0 renal; 9.34 µM in the assay on SF-268 CNS; 4.93 µM with UO-31 renal. The TGI with HOP-92 NSCLC turned out to be 4.42 µM.

As for `O=C(c1cc(=O)c2ccc(O)cc2o1)c1ccc(Cl)cc1Cl`, the TGI in the assay on OVCAR-3 ovarian is above 58.9 µM; in the assay with MOLT-4 leukemia, 22.3 µM; in the assay on SNB-19 CNS it was above 100 µM; in the assay with 786-0 renal, above 64.4 µM; in the assay on CCRF-CEM leukemia, 39.6 µM; with HL-60(TB) leukemia, above 100 µM. In addition, the TGI was above 100 µM with SF-268 CNS, above 82.2 µM in the assay with UO-31 renal and above 73.4 µM in the assay with HOP-92 NSCLC.

Take `CCOC(=O)C1=C(Nc2ccccc2)OC/C1=N\NC(=O)Cc1ccccc1`: the TGI in the assay on OVCAR-3 ovarian, in the assay on MOLT-4 leukemia, with SNB-19 CNS, with 786-0 renal, with CCRF-CEM leukemia and in the assay with HL-60(TB) leukemia was above 50 µM each time. Besides, the TGI in the assay with SF-268 CNS, in the assay with UO-31 renal and in the assay on HOP-92 NSCLC was above 50 µM in each case.

For `CCOc1ccccc1NC(=O)C(=O)CC(=O)C1=C(C)Nc2ccccc2S1`, the TGI with OVCAR-3 ovarian was above 100 µM; in the assay on MOLT-4 leukemia, above 69.5 µM; in the assay with SNB-19 CNS it was above 100 µM; in the assay with 786-0 renal, above 100 µM; with CCRF-CEM leukemia it was above 100 µM; with HL-60(TB) leukemia it was above 36.2 µM. Moreover, the TGI in the assay on SF-268 CNS, in the assay on UO-31 renal and with HOP-92 NSCLC was above 100 µM in each case.

As to `NC(=O)c1ccccc1NC(=O)C(=O)C(C(=O)c1ccc2ccccc2c1)C1OC(=O)c2ccccc21` (centres undefined), the TGI with OVCAR-3 ovarian came to 39.6 µM; in the assay on MOLT-4 leukemia, 23.7 µM; with SNB-19 CNS it was 20.7 µM; in the assay with 786-0 renal, 19.9 µM; with CCRF-CEM leukemia, 77.6 µM; in the assay on SF-268 CNS, 37.1 µM. Also, the TGI in the assay with UO-31 renal is 29.4 µM; with HOP-92 NSCLC, 32.3 µM.

With `O=C(c1cc2ccccc2[nH]1)C(O)(c1cc2ccccc2[nH]1)c1cc2ccccc2[nH]1`, the TGI with OVCAR-3 ovarian, in the assay on MOLT-4 leukemia, in the assay with SNB-19 CNS, with 786-0 renal, with CCRF-CEM leukemia and in the assay on HL-60(TB) leukemia was above 246 µM throughout. Further, the TGI in the assay with SF-268 CNS and with HOP-92 NSCLC was above 246 µM in each case.

Take `Cc1cc(C)nc(NS(=O)(=O)c2ccc(Nc3c4ccccc4nc4c(C(=O)NCCN(C)C)ccc(Cl)c34)cc2)n1`: the TGI came out at 23 µM in the assay with OVCAR-3 ovarian; 6.08 µM in the assay on SNB-19 CNS; 14.7 µM in the assay on 786-0 renal; 15.7 µM in the assay on CCRF-CEM leukemia; 7.6 µM in the assay on HL-60(TB) leukemia; 8.11 µM in the assay on SF-268 CNS. For the same compound, the TGI in the assay on UO-31 renal was 4.62 µM.

With `C/C=C/C=N/N(c1nnc(-c2ccccc2)c(-c2ccccc2)n1)S(=O)(=O)c1ccc(C)cc1`, the TGI came to 25.2 µM with OVCAR-3 ovarian; 26.6 µM in the assay on MOLT-4 leukemia; 19.2 µM in the assay on 786-0 renal; 9.21 µM in the assay on CCRF-CEM leukemia; 6.36 µM with HL-60(TB) leukemia; 18 µM in the assay on SF-268 CNS. Further, the TGI in the assay with UO-31 renal is 19.6 µM; in the assay with HOP-92 NSCLC it was 31.3 µM.
